# Test results published in patent US20120128706A1, “IMMUNE ADJUVANT COMPRISING ATP” (priority 2007, published 2012).
# Key:
# Balb/c mice [1] = experiment: Measurement of IgG1/IgG2 ratio in blood samples as an index of Th2/Th1 balance (Test Example 2); type: in vivo; conditions: for IgG1/IgG2 ratio (given as average of the absorbance): mouse, in vivo
# Experimental: The blood sample collected on the 25th day from the start of the test was provided, and the IgG1/IgG2 ratio was measured as an index of Th2/Th1 balance.
# Further, a blood sample obtained by inoculating only the antigenic substance by intraperitoneal administration instead of the dermal administration at the same time as in the administration schedule in Test Example 1 was used as a control blood sample for comparison.
# The IgG1/IgG2 ratio was measured with a Mouse Monoclonal Antibody Isotyping Reagents kit (SIGMA).
# Specifically, a mouse serum was diluted with PBS by a factor of 1000 to give a solution. The solution (100 μL) was added to wells in a plate and was incubated at 37° C. for one hr. Next, each well was washed three times with PBS, and 100 μL of isotyping specific reagents (reagents containing IgA, IgG1, IgG2a, and IgG2b), which had been diluted by a factor of 1000, were added to the wells followed by incubation at room temperature for 30 min. Each well was washed three times with PBST. A peroxidase labelled mouse IgG (manufactured by SIGMA) (100 μL), which had been diluted with PBST by a factor of 5000, was added to the wells, and the wells were allowed to stand at room temperature for one hr. The wells were then washed three times with PBST. Thereafter, ABTS was added as a chromophoric substrate, and incubation was carried out for 5 to 10 min. For each well, the absorbance was measured with Multiscan Ascent (manufactured by Thermo Labsystems, wave length 405 nm).
# Balb/c mice [2] = experiment: Production amount of antibody by ELISA after dermal administration of antigenic substance with immunoadjuvant (Test Example 1); type: in vivo
Compound,"Th2/Th1 balance (type of immunity induced) (Balb/c mice [1]; from IgG1/IgG2 ratio, compared with antigenic substance only intraperitoneally or with cholera toxin)",IgG1/IgG2 ratio (given as average of the absorbance) (Balb/c mice [1]),"average±standard error of the absorbance (amount of antibody in mouse serum by ELISA) (Balb/c mice [2]; serum sample on the 25th day from start of test, dermal administration by tape preparation, serum diluted 1000-fold, wavelength 405 nm, n=4)","average±standard error of the absorbance (amount of antibody in mouse serum by ELISA) (Balb/c mice [2]; mouse, in vivo)"
"Nc1ncnc2c1ncn2[C@@H]1O[C@H](COP(=O)(O)OP(=O)(O)OP(=O)(O)O)[C@@H](O)[C@H]1O [ATP, adenosine triphosphate]",Th2 cells are predominant,2.28,0.670±0.033,
cholera toxin [reference compound],,1.46,,0.551±0.202
